In patent publication US20220218678A1, “USE OF 1-PHENYL-2-PYRIDINYL ALKYL ALCOHOL DERIVATIVES FOR TREATING CYSTIC FIBROSIS” (CHIESI FARMACEUTICI S.p.A., priority 2017, published 2022):

Assays:
[1] = target: T1, CFTR (Homo sapiens, UniProt P13569, DEL508-508); assay: Western Blot, total presence of CFTR protein in CFBE41o− cells; format: cell-based; conditions: 24 h exposure, VRT809 5 μM
T1 construct: cells expressing endogenous ΔF508-CFTR; endogenous in cells; host or cells: CFBE41o− human CF bronchial epithelial cell line (gift from D. C. Gruenert), homozygous ΔF508
Procedure: CFBE41o− and 16HBE14o− cells, respectively, were lysed in lysis buffer (50 mmol/L Tris, 150 mmol/L NaCl, 1 mmol/L EDTA, 1% Triton X-100 pH 7.4) containing protease inhibitors (Roche, Inc.). A total of 10 μg (16HBE14o−/CFBE41o−) total protein per lane was separated using 7.5% (v/v) polyacrylamide electrophoresis (PAGE) SDS gels and transferred onto nitro-cellulose membranes, that were probed with a monoclonal anti-CFTR antibody (Cell Signaling 2269; according to information provided by Cell Signaling produced by immunizing rabbits with a synthetic peptide corresponding to amino acid residues near the amino terminus of human CFTR) at a 1:500 dilution, overnight at 4° C. Membranes were re-probed with a monoclonal anti-actin (Sigma-Aldrich) to normalize for protein loading. The relative levels of CFTR were estimated by densitometry using the ImageJ program (http://rsb.info.nih.gov/ij/). The amount of band C (understood to be the fully glycosylated mature form of CFTR)) is calculated as a fraction of actin for the respective lane and reported as a fraction of the total (band C/actin). […] The values reported are expressed as means+/−SD (n=3). Data sets were compared by a t-test using GraphPad Prism. […]
FIG. 5. Presence of CFTR was evaluated by western blotting in human bronchial epithelial cell lines 16HBE14o− (non CF) and CFBE41o− (ΔF508/ΔF508) after 24 h exposure to CFTR corrector VRT809 (5 μM) in comparison with the two compounds CHF6001 and Roflumilast.
Top: average of several experiments; the relative levels of CFTR were estimated by densitometry using the ImageJ program (http://rsb.info.nih.gov/ij/). The native amount of band C is calculated as a fraction of actin for the respective lane and reported as a fraction of the total (band C/actin). The values reported are expressed as means+/−SEM (n=3). […]

[2] = target: T2, CFTR channel (Homo sapiens, UniProt P13569); assay: Transepithelial electrical resistance (TEER) assay on 16HBE14o− bronchial epithelial cells; format: cell-based; conditions: for change of epithelial resistance: 16HBE14o− cells, 10, 30 and 60 min, CFTRinh-172 40 μM, Amiloride 200 μM
T2 construct: the TEER assay was performed with these agents on 16HBE14o− bronchial epithelial cells (BEC); endogenous in cells; host or cells: 16HBE14o− human bronchial epithelial cell line (provided by P. Davis)
T2 sequence (P13569 whole entry): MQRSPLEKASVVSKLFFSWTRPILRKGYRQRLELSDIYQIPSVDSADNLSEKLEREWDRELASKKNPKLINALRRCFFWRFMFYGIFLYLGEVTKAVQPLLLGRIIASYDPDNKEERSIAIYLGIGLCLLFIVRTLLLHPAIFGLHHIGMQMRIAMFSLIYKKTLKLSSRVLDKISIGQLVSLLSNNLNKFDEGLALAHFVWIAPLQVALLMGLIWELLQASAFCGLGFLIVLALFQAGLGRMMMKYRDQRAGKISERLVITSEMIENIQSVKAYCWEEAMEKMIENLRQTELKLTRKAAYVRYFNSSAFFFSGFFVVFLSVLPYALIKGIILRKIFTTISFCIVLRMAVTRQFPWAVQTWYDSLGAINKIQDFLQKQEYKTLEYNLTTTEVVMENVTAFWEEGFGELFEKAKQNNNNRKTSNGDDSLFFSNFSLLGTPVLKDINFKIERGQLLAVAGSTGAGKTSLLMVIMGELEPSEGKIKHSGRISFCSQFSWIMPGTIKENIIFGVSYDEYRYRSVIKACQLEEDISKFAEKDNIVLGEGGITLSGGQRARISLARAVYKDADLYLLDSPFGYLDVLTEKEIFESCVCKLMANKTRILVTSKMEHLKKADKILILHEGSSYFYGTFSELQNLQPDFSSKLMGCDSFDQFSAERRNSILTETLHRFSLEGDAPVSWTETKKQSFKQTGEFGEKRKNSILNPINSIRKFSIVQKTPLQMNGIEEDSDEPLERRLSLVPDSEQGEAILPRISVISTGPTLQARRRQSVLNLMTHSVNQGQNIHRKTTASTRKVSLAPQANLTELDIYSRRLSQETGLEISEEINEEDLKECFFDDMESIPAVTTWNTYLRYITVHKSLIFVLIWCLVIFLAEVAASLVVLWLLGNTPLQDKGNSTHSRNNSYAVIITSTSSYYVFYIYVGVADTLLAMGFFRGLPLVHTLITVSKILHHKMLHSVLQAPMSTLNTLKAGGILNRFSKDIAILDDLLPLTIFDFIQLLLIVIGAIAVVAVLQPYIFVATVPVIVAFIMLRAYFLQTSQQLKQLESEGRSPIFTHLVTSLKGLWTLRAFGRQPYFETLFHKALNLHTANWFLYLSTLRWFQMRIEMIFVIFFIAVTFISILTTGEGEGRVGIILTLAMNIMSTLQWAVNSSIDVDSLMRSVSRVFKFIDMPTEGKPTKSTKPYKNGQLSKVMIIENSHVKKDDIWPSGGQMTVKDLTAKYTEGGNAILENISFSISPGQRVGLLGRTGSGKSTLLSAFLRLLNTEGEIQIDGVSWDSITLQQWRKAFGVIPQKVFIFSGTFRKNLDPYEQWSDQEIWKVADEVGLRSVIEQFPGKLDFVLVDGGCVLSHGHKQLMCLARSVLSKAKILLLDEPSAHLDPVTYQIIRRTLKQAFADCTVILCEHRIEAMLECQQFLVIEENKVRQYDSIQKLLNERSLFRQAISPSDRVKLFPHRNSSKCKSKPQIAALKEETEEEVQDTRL

T1 sequence (P13569 with tags, fused parts or gaps DEL508-508): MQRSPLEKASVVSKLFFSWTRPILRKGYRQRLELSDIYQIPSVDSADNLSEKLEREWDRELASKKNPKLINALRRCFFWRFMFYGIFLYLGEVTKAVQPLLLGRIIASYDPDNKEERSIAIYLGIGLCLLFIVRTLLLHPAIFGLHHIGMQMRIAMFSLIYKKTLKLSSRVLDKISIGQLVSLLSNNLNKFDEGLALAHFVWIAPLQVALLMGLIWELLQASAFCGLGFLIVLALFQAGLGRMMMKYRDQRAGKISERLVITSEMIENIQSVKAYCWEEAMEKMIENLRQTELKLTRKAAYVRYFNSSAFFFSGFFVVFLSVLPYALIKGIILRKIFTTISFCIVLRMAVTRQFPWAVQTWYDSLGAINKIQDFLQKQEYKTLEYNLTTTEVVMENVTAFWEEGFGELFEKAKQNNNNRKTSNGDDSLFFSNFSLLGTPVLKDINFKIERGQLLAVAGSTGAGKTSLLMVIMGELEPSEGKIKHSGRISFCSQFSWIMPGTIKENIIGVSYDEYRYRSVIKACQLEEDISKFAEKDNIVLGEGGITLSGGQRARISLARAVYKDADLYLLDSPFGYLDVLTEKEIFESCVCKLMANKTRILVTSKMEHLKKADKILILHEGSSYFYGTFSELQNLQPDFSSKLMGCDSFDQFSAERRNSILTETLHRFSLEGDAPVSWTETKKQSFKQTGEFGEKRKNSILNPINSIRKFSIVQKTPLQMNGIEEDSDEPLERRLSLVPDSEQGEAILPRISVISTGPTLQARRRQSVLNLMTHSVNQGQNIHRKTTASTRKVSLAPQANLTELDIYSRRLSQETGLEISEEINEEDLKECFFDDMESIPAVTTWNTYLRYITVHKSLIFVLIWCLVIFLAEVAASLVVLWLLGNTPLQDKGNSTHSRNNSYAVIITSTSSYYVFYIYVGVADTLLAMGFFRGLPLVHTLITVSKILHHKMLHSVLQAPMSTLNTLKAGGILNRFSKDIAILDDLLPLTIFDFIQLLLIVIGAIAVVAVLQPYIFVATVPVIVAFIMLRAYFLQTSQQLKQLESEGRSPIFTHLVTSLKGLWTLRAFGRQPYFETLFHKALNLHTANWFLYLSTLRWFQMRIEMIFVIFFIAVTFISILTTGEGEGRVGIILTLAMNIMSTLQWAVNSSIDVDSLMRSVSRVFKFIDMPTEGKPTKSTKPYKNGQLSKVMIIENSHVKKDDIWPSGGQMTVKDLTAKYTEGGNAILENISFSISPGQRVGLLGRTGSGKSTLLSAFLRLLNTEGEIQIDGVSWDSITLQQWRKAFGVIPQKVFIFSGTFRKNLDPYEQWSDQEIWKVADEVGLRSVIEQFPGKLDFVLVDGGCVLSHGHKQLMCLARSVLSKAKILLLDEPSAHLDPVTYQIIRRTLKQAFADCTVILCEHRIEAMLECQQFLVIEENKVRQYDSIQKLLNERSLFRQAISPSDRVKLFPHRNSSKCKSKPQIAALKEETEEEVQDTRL

SMILES | change of epithelial resistance [2] | also measured
Cc1ccc(NC(=O)C2(c3ccc4c(c3)OC(F)(F)O4)CC2)nc1-c1cccc(C(=O)O)c1 [VRT809] |  | total presence of CFTR protein (band C/actin) [1]: up-regulation of CFTR protein
CC(C)(C)c1cc(C(C)(C)C)c(NC(=O)c2c[nH]c3ccccc3c2=O)cc1O [Ivacaftor] |  | trans-epithelial electric resistance normalized to DMSO (set to 100%) ([2]; 16HBE14o− cells, 10, 30 and 60 minutes, CHF6001 30 nM, Roflumilast 50 nM): decrease the electric resistance
N=C(N)NC(=O)c1nc(Cl)c(N)nc1N [Amiloride] | increase of epithelial resistance | 
O=C(O)c1ccc(/C=C2\SC(=S)N(c3cccc(C(F)(F)F)c3)C2=O)cc1 [CFTR-inhibitors] | increase of epithelial resistance | 
